Two compounds from patent US7666871B2, “Oxazole derivatives as histamine H3 receptor agents, preparation and therapeutic uses” (Eli Lilly and Company, priority 2004, dated 2010) can be followed below.

In this test the target is T1, human H3R (Homo sapiens, UniProt Q9Y5N1).
T1 construct: expressed in transfected cells; pcDNA3.1(+) vector, G418 selection), membranes
The test is described as follows: Histamine H3 Receptor Binding Assay (competitive inhibition SPA, membranes of transfected HEK293 cells). As to conditions: Ki's at the human H3R. The source says: The compounds of the present invention can readily be evaluated by using a competitive inhibition Scintillation Proximity Assay (SPA) based on a H3R binding assay using R-[3H] α methylhistamine as ligand. Stable cell lines, including but not limited to HEK can be transfected with cDNA coding for H3R to prepare membranes used for the binding assay. The technique is illustrated below (Preparation of Histamine Receptor Subtype Membranes) for the histamine receptor subtypes.
cDNA for the human histamine 1 receptor (H1R) was cloned into a mammalian expression vector containing the CMV promoter (pcDNA3.1(+), Invitogen) and transfected into HEK293 cells using the FuGENE Tranfection Reagent (Roche Diagnostics Corporation). Transfected cells were selected using G418 (500 μ/mL). Colonies that survived selection were grown and tested for histamine binding to cells grown in 96-well dishes using a scintillation proximity assay (SPA) based radioligand binding assay. Briefly, cells, representing individual selected clones, were grown as confluent monolayers in 96-well dishes (Costar Clear Bottom Plates, #3632) by seeding wells with 25,000 cells and growing for 48 hours (37° C., 5% CO2). […] Plates were counted in a Wallac Trilux 1450 Microbeta scintillation counter. […]
cDNA for the human histamine 3 receptor was cloned and expressed as described in (A. Preparation H1R membranes), above. […]

T1 sequence (Q9Y5N1 whole entry): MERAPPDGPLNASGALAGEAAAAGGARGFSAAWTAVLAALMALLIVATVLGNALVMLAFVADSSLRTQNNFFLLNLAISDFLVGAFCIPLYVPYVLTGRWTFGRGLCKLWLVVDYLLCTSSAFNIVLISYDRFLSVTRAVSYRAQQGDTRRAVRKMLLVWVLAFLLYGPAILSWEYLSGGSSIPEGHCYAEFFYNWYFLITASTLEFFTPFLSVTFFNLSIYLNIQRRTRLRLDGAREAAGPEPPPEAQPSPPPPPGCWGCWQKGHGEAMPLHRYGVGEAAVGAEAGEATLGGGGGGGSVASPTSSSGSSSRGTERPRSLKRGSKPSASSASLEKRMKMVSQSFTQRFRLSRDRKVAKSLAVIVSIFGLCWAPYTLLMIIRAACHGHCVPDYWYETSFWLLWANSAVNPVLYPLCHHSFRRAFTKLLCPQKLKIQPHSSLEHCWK

In general, Ki refers to a dissociation constant, usually derived from enzyme kinetics or from competition with a known ligand. Higher therefore signals lower affinity. Compound `CS(=O)(=O)Nc1ccc(-c2ccc(-c3nc(CN4CCCC4)co3)cc2)cc1` registered an inhibition constant Ki of 1.6 nM. Then `COC[C@@H]1CCCN1CCc1nc(-c2ccc(-c3cccnc3)cc2)oc1C`, with 14.3 nM.
